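96-well plates; 48 h exposure; 5 concentrations. Endpoints by linear interpolation between flanking doses. Not reached: highest tested concentration assigned. Here, GI50 denotes the concentration required for 50% inhibition of growth.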 Active and inactive are the calls of the source. Rule as the data show it: active = GI50 up to about 1.1 µM and inactive = higher.
Key:
Test in all cases: NCI anticancer screen, dose series, 48 h
A498 = test system: A498
A549 = test system: A549
ACHN = test system: ACHN
CCRF-CEM = test system: CCRF-CEM
COLO 205 = test system: COLO 205
EKVX = test system: EKVX
HCT-116 = test system: HCT-116
HOP-92 = test system: HOP-92
LXFL 529 = test system: LXFL 529
M14 = test system: M14
MDA-MB-231 = test system: MDA-MB-231
MDA-MB-435 = test system: MDA-MB-435
Malme-3M = test system: Malme-3M
OVCAR-8 = test system: OVCAR-8
SK-MEL-28 = test system: SK-MEL-28
SK-OV-3 = test system: SK-OV-3
SR = test system: SR
U-251 = test system: U-251
UACC-257 = test system: UACC-257
OVCAR-4 = test system: OVCAR-4

| SMILES | GI50 (A498) | GI50 (A549) | GI50 (ACHN) | GI50 (CCRF-CEM) | GI50 (COLO 205) | GI50 (EKVX) | GI50 (HCT-116) | GI50 (HOP-92) | GI50 (LXFL 529) | GI50 (M14) | GI50 (MDA-MB-231) | GI50 (MDA-MB-435) | GI50 (Malme-3M) | GI50 (OVCAR-8) | GI50 (SK-MEL-28) | GI50 (SK-OV-3) | GI50 (SR) | GI50 (U-251) | GI50 (UACC-257) | GI50 (OVCAR-4) |
| --- | --- | --- | --- | --- | --- | --- | --- | --- | --- | --- | --- | --- | --- | --- | --- | --- | --- | --- | --- | --- |
| COc1cc(C2C3=C(COC3=O)Oc3cc4c(cc32)OCO4)cc(OC)c1OC (stereo not given) | 0.00488 µM (active) | 0.0354 µM (active) | < 0.0326 µM (active) | 0.0314 µM (active) | 0.0333 µM (active) | 0.015 µM (active) | < 0.0144 µM (active) | 0.0161 µM (active) | 0.00718 µM (active) | 0.0326 µM (active) | 0.0667 µM (active) | 0.0295 µM (active) | 0.0828 µM (active) | 0.0335 µM (active) | 0.00771 µM (active) | < 0.0144 µM (active) | 0.0424 µM (active) | 0.0262 µM (active) | 0.0673 µM (active) | – |
| N#Cc1c(-c2ccc(Cl)cc2)c(-c2ccc(Cl)cc2)nn(CCOC(=O)CCC(=O)O)c1=O | 0.652 µM (active) | 1.31 µM (inactive) | 1.45 µM (inactive) | 0.48 µM (active) | 0.582 µM (active) | 2.69 µM (inactive) | 0.6 µM (active) | < 0.01 µM (active) | 1.03 µM (active) | 0.399 µM (active) | 2.65 µM (inactive) | 0.0773 µM (active) | 1.02 µM (active) | 1.02 µM (active) | 5.47 µM (inactive) | 0.778 µM (active) | 0.291 µM (active) | 0.505 µM (active) | 9.64 µM (inactive) | 1.45 µM (inactive) |
| O=C1OC(=O)C2C1C1C(c3ccccc3)=C(c3ccccc3)C2(O)C2C(=O)OC(=O)C12 (stereo not given) | > 100 µM (inactive) | > 100 µM (inactive) | > 100 µM (inactive) | 37.5 µM (inactive) | > 100 µM (inactive) | > 100 µM (inactive) | 54.8 µM (inactive) | 65.6 µM (inactive) | 58.3 µM (inactive) | > 100 µM (inactive) | – | – | > 100 µM (inactive) | 63.8 µM (inactive) | 98.4 µM (inactive) | > 100 µM (inactive) | 78.5 µM (inactive) | 52.1 µM (inactive) | > 100 µM (inactive) | > 100 µM (inactive) |
| Cc1cc2c(cc1C)[n+]([O-])c(C(=O)CC(=O)C(=O)Nc1ccccc1C)c(C)[n+]2[O-] | > 100 µM (inactive) | 56.2 µM (inactive) | > 100 µM (inactive) | 40.7 µM (inactive) | 46.5 µM (inactive) | 33.8 µM (inactive) | > 100 µM (inactive) | > 100 µM (inactive) | 84.7 µM (inactive) | > 100 µM (inactive) | – | – | > 100 µM (inactive) | > 100 µM (inactive) | > 100 µM (inactive) | > 100 µM (inactive) | 38 µM (inactive) | > 100 µM (inactive) | > 100 µM (inactive) | > 100 µM (inactive) |
| COc1ccc(/C=C2\CCC(CN(C)C)C2=O)cc1 (stereo not given) | 15 µM (inactive) | 12.2 µM (inactive) | 9.77 µM (inactive) | 2.26 µM (inactive) | 3.42 µM (inactive) | 17.8 µM (inactive) | 2.29 µM (inactive) | 6.1 µM (inactive) | 2.05 µM (inactive) | 2.54 µM (inactive) | 1.99 µM (inactive) | 1.88 µM (inactive) | 4.92 µM (inactive) | 3.24 µM (inactive) | 5.75 µM (inactive) | 17.6 µM (inactive) | 1.26 µM (inactive) | 18.3 µM (inactive) | 3.75 µM (inactive) | 8.34 µM (inactive) |
| COC1=C(OC)C(=O)c2cc(C)c(=O)c(C)cc2C1=O | 24.2 µM (inactive) | 20.2 µM (inactive) | 14.8 µM (inactive) | 2.45 µM (inactive) | 19.1 µM (inactive) | 17.3 µM (inactive) | 15.3 µM (inactive) | 16.4 µM (inactive) | 4.36 µM (inactive) | 16.9 µM (inactive) | 7.94 µM (inactive) | 1.8 µM (inactive) | 17.1 µM (inactive) | 17.3 µM (inactive) | 16.5 µM (inactive) | 22 µM (inactive) | 2.65 µM (inactive) | 17.2 µM (inactive) | 11.2 µM (inactive) | 2.83 µM (inactive) |

Reference: ChEMBL document CHEMBL1201862, “PubChem BioAssay data set” (2004)
